Results as given in ChEMBL document CHEMBL5465560, “Selectivity Literature for EUbOPEN Chemogenomic Library” (2024).
One block for each compound: values may come before it.

Columns and labels:
[1] = target: Serine/threonine-protein kinase PLK3 (Homo sapiens, UniProt Q9H4B4); assay: Selectivity interaction (Millipore kinase profiler) EUB0000124b PLK3; conditions: at 10 µM
SRSF protein kinase 1 = SRSF protein kinase 1 (Homo sapiens, UniProt Q96SB4); assay: Selectivity interaction (KinomeScan (DiscoverX)) EUB0000618a SRPK1; conditions: at 10 µM
[2] = target: Casein kinase II subunit alpha' (Homo sapiens) (UniProt P19784); assay: Selectivity interaction (SelectScreen profiling (Invitrogen)) EUB0000607a CSNK2A2; conditions: at 2 µM
[3] = target: Ribosomal protein S6 kinase alpha-2 (Homo sapiens) (UniProt Q15349); assay: Selectivity interaction (KinomeScan (DiscoverX)) EUB0000607a RPS6KA2; conditions: at 10 µM
[4] = target: eIF-2-alpha kinase GCN2 (Homo sapiens) (UniProt Q9P2K8); assay: Selectivity interaction (ActivX KiNativ screen (ex vivo kinase selectivity in human PBMCs)) EUB0001619a EIF2AK4; format: cell-based; conditions: PBMC, at 1 µM
[5] = target: T1, Ephrin type-A receptor 8 (Homo sapiens) (UniProt P29322); assay: Selectivity interaction (KinomeScan (DiscoverX)) EUB0000045b EPHA8
T1 sequence (whole entry): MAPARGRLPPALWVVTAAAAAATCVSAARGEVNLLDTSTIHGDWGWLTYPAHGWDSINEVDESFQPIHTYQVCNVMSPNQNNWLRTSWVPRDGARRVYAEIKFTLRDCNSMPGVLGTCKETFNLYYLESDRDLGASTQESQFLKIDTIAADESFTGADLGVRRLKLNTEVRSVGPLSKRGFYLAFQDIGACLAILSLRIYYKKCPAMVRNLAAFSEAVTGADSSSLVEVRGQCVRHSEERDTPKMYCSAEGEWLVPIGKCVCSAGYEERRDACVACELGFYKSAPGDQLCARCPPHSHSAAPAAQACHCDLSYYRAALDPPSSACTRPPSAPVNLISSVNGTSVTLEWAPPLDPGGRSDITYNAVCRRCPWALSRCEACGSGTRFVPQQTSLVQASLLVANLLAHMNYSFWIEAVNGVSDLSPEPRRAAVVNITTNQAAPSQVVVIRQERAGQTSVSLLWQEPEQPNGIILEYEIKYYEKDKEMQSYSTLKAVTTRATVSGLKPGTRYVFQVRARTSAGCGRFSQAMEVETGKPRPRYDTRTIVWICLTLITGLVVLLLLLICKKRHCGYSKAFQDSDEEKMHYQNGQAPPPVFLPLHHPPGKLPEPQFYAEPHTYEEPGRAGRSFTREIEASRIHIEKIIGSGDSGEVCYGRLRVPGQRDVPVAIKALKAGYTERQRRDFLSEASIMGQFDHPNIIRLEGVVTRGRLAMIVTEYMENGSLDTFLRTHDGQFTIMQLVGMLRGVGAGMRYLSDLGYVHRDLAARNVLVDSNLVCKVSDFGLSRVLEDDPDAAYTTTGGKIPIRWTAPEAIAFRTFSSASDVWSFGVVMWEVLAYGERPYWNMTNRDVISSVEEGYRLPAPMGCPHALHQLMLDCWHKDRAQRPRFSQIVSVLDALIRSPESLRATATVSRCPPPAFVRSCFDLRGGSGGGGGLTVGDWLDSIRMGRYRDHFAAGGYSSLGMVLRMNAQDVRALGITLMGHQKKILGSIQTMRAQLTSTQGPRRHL

[6] = test system: Mast/stem cell growth factor receptor Kit (Homo sapiens), P10721 [V559D]; conditions: at 10 µM
[7] = target: Nucleosome-remodeling factor subunit BPTF (Homo sapiens, UniProt Q12830); assay: Selectivity interaction (Bromodomain panel (DSF asssay)) EUB0000270b BPTF
[8] = target: Non-receptor tyrosine-protein kinase TYK2 (Homo sapiens, UniProt P29597); assay: Selectivity interaction (KinomeScan (DiscoverX)) EUB0000666a TYK2; conditions: at 10 µM
Aurora kinase B = Aurora kinase B (Homo sapiens, UniProt Q96GD4); assay: Selectivity interaction (Kinase panel (Z-LYTE Assay)) EUB0001632a AURKB; conditions: at 10 µM
[9] = target: DNA-dependent protein kinase catalytic subunit (Homo sapiens) (UniProt P78527); assay: Selectivity interaction (Kinase panel (Z-LYTE Assay)) EUB0001632a PRKDC; conditions: at 10 µM
[10] = target: T2, Serine/threonine-protein kinase ULK1 (Homo sapiens) (UniProt O75385); assay: Selectivity interaction (LanthaScreen Eu Kinase Binding Assay) EUB0001632a ULK1; conditions: at 10 µM
T2 sequence (whole entry): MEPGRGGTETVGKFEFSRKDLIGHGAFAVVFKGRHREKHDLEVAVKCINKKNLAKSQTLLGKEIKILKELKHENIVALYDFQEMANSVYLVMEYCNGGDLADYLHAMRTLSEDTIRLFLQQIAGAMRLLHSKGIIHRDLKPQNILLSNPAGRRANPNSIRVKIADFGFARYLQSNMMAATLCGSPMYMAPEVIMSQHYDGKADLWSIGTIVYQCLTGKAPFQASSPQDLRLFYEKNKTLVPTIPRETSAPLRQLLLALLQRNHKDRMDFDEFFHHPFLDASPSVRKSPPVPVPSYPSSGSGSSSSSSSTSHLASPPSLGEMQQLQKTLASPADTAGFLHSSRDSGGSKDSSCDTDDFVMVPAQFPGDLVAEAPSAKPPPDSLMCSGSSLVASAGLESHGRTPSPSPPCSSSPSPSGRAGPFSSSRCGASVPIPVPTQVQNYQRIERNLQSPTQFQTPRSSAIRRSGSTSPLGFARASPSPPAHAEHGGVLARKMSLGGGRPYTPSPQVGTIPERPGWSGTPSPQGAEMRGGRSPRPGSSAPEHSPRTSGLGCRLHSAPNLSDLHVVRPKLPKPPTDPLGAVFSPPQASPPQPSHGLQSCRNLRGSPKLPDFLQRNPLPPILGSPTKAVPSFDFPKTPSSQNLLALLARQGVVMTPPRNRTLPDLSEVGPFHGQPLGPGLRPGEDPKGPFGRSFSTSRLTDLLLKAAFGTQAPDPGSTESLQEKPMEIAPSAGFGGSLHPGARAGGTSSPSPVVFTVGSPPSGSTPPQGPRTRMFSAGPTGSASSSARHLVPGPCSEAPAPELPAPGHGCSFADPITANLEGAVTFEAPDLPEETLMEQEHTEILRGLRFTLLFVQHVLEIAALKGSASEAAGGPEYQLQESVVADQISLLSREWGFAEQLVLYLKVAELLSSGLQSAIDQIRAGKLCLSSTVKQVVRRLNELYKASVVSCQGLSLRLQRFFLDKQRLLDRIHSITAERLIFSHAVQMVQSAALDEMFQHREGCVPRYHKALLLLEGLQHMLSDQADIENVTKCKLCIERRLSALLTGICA

Sequence of Ribosomal protein S6 kinase alpha-2 (Homo sapiens) (Q15349 whole entry): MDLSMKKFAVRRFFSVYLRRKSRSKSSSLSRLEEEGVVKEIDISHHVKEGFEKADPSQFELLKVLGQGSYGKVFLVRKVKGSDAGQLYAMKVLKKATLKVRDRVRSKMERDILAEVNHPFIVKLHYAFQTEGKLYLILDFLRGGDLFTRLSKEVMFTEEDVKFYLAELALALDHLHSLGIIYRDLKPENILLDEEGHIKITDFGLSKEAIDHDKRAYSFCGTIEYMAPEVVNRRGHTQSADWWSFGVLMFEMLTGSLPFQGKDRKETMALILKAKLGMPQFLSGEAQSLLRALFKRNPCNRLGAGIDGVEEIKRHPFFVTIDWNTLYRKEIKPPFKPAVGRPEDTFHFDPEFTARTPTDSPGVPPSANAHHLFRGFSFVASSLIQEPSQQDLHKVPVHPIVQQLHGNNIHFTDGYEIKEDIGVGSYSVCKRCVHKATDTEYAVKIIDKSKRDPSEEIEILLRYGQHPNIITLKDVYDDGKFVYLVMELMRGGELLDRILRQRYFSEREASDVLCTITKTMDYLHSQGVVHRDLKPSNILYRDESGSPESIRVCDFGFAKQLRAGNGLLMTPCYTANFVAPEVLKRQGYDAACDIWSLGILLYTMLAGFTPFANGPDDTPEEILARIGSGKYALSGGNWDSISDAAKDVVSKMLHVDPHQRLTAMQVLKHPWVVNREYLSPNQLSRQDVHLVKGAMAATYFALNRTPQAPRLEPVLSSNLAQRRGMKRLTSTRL
Sequence of Non-receptor tyrosine-protein kinase TYK2 (P29597 whole entry): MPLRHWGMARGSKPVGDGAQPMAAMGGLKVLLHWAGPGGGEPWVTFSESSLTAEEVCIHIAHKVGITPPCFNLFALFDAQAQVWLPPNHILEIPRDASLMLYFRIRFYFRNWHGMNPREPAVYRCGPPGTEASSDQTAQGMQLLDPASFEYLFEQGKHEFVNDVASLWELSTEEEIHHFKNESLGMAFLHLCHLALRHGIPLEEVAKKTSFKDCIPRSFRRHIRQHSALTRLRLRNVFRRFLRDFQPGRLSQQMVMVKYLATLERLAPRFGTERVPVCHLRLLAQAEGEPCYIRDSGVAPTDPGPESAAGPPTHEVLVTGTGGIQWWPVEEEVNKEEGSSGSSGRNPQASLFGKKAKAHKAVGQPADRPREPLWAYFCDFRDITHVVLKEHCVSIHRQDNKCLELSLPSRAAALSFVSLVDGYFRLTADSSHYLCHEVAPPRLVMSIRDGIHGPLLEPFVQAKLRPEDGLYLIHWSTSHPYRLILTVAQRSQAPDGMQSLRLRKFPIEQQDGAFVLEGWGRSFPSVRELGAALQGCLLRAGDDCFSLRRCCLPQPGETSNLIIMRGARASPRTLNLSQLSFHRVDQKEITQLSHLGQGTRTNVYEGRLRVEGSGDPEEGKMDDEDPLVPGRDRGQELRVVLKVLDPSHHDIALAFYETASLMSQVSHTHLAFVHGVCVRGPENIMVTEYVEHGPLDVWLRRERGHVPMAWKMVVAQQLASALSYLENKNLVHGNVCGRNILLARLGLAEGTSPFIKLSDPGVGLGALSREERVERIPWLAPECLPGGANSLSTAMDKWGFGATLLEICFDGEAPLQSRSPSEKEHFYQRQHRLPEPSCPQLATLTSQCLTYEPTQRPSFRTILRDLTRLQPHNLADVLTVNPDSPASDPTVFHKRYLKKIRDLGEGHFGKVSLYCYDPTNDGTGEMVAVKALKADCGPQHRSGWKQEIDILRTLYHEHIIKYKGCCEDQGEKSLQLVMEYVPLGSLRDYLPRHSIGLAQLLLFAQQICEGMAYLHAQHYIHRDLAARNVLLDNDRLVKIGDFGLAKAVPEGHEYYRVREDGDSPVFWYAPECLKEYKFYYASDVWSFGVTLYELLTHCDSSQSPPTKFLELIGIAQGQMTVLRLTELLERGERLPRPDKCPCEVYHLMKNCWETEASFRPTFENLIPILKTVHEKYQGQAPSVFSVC
Sequence of Aurora kinase B (Q96GD4 whole entry): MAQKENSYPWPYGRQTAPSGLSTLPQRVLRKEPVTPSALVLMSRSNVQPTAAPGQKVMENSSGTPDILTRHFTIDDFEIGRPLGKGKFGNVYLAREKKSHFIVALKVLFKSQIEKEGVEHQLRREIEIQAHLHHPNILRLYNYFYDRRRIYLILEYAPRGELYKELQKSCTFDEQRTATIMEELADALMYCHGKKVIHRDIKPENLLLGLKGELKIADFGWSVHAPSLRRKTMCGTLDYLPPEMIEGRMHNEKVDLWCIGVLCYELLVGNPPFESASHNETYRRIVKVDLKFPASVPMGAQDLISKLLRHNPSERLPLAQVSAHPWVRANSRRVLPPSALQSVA
Sequence of eIF-2-alpha kinase GCN2 (Homo sapiens) (Q9P2K8 whole entry): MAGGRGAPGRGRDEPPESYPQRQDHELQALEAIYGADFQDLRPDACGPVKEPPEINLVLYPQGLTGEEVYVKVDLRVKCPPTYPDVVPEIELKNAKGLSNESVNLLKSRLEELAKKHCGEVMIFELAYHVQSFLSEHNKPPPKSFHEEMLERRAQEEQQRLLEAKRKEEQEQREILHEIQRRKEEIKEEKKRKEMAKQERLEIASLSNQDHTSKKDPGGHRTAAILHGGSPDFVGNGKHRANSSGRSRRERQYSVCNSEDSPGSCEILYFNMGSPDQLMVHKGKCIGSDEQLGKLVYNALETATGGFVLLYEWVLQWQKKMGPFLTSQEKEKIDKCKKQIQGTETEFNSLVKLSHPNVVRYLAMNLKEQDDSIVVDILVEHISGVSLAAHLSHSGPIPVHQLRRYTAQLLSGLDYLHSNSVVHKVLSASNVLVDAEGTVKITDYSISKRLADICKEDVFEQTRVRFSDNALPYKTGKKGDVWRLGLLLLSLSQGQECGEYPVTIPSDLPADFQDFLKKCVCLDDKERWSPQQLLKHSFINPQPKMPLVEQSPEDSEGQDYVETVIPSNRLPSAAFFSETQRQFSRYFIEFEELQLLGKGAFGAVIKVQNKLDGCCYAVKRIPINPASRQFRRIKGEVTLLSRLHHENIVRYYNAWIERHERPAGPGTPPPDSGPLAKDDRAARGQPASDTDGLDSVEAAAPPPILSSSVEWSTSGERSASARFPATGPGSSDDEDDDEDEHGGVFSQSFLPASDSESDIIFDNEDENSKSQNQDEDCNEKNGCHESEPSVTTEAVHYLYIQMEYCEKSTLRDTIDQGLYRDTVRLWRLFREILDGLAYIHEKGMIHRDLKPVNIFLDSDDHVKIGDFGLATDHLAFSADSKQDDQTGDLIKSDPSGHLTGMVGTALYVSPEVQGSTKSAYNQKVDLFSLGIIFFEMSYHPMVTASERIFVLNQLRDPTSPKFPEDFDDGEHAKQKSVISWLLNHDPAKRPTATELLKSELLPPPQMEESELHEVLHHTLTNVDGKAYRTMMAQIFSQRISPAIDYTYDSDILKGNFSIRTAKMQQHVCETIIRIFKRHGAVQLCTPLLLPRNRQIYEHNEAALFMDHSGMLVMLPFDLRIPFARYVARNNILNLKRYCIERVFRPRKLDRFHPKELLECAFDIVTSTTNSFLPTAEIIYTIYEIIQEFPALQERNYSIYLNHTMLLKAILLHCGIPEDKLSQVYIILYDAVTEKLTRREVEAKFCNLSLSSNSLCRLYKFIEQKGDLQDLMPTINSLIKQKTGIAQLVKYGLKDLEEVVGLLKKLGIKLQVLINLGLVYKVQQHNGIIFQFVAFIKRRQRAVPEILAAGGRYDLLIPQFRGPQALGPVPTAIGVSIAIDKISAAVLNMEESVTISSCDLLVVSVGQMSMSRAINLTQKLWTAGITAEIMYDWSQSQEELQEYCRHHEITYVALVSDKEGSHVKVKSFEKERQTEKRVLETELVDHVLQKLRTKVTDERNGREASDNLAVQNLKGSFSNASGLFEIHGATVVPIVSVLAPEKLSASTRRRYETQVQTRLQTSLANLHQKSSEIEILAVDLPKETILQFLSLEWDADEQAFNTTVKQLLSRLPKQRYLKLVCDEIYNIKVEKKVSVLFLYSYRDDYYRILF
Sequence of Casein kinase II subunit alpha' (Homo sapiens) (P19784 whole entry, looked up): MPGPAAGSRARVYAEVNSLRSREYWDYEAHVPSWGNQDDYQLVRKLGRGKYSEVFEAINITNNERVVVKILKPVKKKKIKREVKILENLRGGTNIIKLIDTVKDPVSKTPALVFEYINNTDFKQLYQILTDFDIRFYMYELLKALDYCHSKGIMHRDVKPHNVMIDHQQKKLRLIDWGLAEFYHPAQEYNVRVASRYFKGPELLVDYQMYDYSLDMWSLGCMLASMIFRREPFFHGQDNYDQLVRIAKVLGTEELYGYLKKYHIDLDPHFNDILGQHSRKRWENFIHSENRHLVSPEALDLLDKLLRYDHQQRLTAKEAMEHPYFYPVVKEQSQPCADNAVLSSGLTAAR
Sequence of SRSF protein kinase 1 (Q96SB4 whole entry): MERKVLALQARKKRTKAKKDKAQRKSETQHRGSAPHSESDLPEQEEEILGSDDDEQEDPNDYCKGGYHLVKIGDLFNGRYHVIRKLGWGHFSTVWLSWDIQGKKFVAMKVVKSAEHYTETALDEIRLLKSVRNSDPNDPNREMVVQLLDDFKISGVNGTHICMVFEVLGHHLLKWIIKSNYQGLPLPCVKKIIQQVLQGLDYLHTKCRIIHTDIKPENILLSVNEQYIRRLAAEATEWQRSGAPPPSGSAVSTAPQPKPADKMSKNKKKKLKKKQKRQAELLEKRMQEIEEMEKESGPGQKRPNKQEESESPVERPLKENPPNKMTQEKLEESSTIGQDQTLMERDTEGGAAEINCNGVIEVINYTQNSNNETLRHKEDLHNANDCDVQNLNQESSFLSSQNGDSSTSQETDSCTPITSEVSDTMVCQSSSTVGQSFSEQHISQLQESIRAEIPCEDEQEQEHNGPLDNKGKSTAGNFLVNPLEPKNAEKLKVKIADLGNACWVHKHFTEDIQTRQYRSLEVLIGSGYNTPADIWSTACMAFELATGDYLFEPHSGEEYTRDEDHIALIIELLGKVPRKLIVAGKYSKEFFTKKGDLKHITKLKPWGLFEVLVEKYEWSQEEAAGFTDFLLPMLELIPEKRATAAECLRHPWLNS

% of control [1]: 91%
Structure (SMILES): CC(=O)Nc1cccc(-n2c(=O)n(C3CC3)c(=O)c3c(Nc4ccc(I)cc4F)n(C)c(=O)c(C)c32)c1

Structure (SMILES): O[C@H]1CC[C@H](Nc2ncc3nc(Nc4c(F)cc(F)cc4F)n([C@H]4CCOC4)c3n2)CC1
% of control (SRSF protein kinase 1): 100%

Structure (SMILES): CNC(=O)Nc1ccc(-c2nc(N3CC4CCC(C3)O4)c3cnn(C4CCC5(CC4)OCCO5)c3n2)cc1
% of inhibition [2]: 3%
% of control [3]: 93%

Structure (SMILES): N#Cc1cccc(-c2c[nH]c3ncnc(N4CCOCC4)c23)c1
% of inhibition [4]: 22%

Structure (SMILES): C=CC(=O)Nc1cc(-n2c(=O)ccc3cnc4ccc(-c5ccc(NS(C)(=O)=O)cc5)cc4c32)ccc1C
% of control ([5]; at 1 µM): 100%
% of control ([5]; at 10 µM): 76%

Structure (SMILES): Cc1cc([C@@H](C)Nc2ccccc2C(=O)O)c2nc(N3CCOCC3)cc(=O)n2c1 [AZD-6482]
% of control [6]: 91%

dTM [7]: -2.3 K
Structure (SMILES): Cc1cc(CN)cc(C)c1-c1ncn(C)c1-c1cncn1C

Structure (SMILES): O=C(NOC[C@H](O)CO)c1ccc(F)c(F)c1Nc1ccc(I)cc1F
% of control [8]: 100%

% of control (Aurora kinase B): 11.8%
% of control [9]: 11.8%
% of inhibition [10]: -7.27%
Structure (SMILES): Cn1cc(-n2cnc3c(NCc4nc5cc(Cl)c(Cl)cc5[nH]4)nc(N4CCOCC4)nc32)cn1
